Experimental findings from US5374625A, “Adenine and guanine derivatives for the treatment of hepatitis virus infections” (priority 1990, dated 1994) are described below.

The subject of one assay is hepatitis B virus (HBV). As to the kind of experiment: Antiviral activity against hepatitis B virus (HBV), viral DNA synthesis inhibition in HB611 cells. The format is cell-based. To be noted: 360 h, drug concentration required for 50% inhibition of viral DNA synthesis, densitometry, read-out: Anti-HBV activity ID50. Here is the method: Antiviral activity against hepatitis B virus (HBV) which is a DNA virus was tested by the following method.
The test was done by using a cell line, HB611, that was established by transfection and continuously produces HBV-like particles [Proc. Natl. Acad. Sci. USA, 84, 444-449, 1987]. HB611 cells were maintained in Dulbecco's modified Eagle medium (Gibco) supplemented with fetal bovine serum (Gibco), 100 μg/ml of streptomycin, […] of benzyl penicillin (Gibco) and 200 μg/ml of geneticin (Gibco) at 37° C. in 5% CO2 -95% air.
The cells were seeded in 24-well plate (Corning) at a density of 3×10^4 cells/well, using 1.0 ml of the medium. After 2 days of incubation, the medium was replaced with the same medium containing the test compound. The cells were incubated for a further 15 days, during which time the medium containing the drug was exchanged every three days. […]
The results which was autoradiographed were analyzed using a densitometric analyzer (Shimadzu, Chromatoscana S930).
To quantitatively evaluate the inhibitory activity of the compounds, there were measured the band areas S, D, D2 (S, D1 and D2 represent intracellular free HBV DNA derived from replicative intermediates) and I (represents chromosomally integrated HBV DNA) by densitometric analyzer, and calculated the inhibition percentage as follows: [formula] […]

Assay [1] has as its system Herpes simplex virus (HSV-1). The assay can be described thus: Antiviral activity against Herpes simplex virus (HSV-1), CPE inhibition in Vero cells (Neutral Red). To be noted: Human alphaherpesvirus 1, 50% inhibition of CPE, about 72 hours. Type of assay: cell-based. Here is the method:
Antiviral activity against Herpes simplex virus (HSV-1) which is a DNA virus was tested by the following method.
Vero cells (originated from kidney cells of African Green Monkey) were cultured in MEM medium supplemented with 10% fetal bovine serum. One hundred μl of cell suspension (200,000 cells/ml) was plated into 96 wells plates (COSTAR) and cultured for 24 hours so that the culture became confluent. The medium was drawn, and cells were infected with HSV-1 virus for one hour. After drawing the virus fluid, cells were cultured for about 72 hours in a fresh medium containing test samples. The survived cells were stained with Neutral Red solution and absorbance at a wavelength of 546 nm (A546) was measured to evaluate the cytopathic effect (CPE).
CPE inhibition (%) was calculated as follows: [formula] Sample concentration required for 50% inhibition of the CPE was calculated as IC50 (μg/ml).

In assay [2] the test system is Human Immonodeficiency Virus (HIV). The assay can be described thus: Antiviral activity against HIV (HTLV-IIIB strain) in MT-4 cells, HIV antigen-positive cells by indirect immunofluorescence. The format is cell-based, HTLV-IIIB strain of HIV. Conditions: Human immunodeficiency virus 1, MT4, 96 h, 4 days. As for the experimental part: Antiviral activity against Human Immonodeficiency Virus (HIV) belonging to RNA virus was examined by the following method: MT-4 cells […] in 0.5 ml of RPMI 1640 culture medium were seeded into 48-well plates, and 50 μl of test compounds were added to various concentrations. The cells were incubated at 37° C. for 2 hours in 5% (v/v) carbondioxide incubator. Then, 50 μl of the HTLV-IIIB strain of HIV (2.5×10^5 to 5×10^5 PFU/ml) was inoculated onto the cells. After 4 days, a part of the cells were applied onto a slide glass and immobilized with acetone. The percentages of HIV antigen-positive MT-4 cells were determined by indirect immunofluorescence assay. As the primary antibody, serum of AIDS patients was used. As the secondary antibody, FITC-labelled anti-human IgG was used.

Converted amounts (≈) assume the structure as drawn.

As for `Nc1ncnc2c1ncn2[C@@H]1CC[C@H](CO)[C@H]1CO` [Example 5, 9-[(1R,2R,3S)-2,3-Bis(hydroxymethyl)-1-cyclopentyl]-adenine], the IC50 with hepatitis B virus (HBV) was found to be 0.24 µg/mL (≈ 0.912 µM).
Compound `Nc1nc2c(ncn2[C@@H]2C[C@H](CO)[C@@H](CO)C[C@H]2O)c(=O)[nH]1` [Example 18, 9-[(1R,2R,4S,5S)-4,5-Bis(hydroxymethyl)-2-hydroxycyclohexyl]-guanine] came in with an IC50 in assay [1] of 45.9 µg/mL (≈ 148 µM).
On the same count and under the same terms, as for `Nc1nc2c(ncn2[C@H]2CC[C@H](CO)[C@@H](CO)C2)c(=O)[nH]1` [Example 21, 9-[(1S,3S,4S)-3,4-Bis(hydroxymethyl)-cyclohexyl]-guanine], the figure is 2.77 µg/mL (≈ 9.44 µM).
For the compound `Nc1ncnc2c1ncn2[C@@H]1C[C@H](CO)[C@@H](CO)C[C@H]1O` [Example 13, 9-[(1R,2R,4S,5S)-4,5-Bis(hydroxymethyl)-2-hydroxycyclohexyl]-adenine], the IC50 in assay [2] is 55 µg/mL (≈ 188 µM).
Same read-out and setting: the result for `Nc1ncnc2c1ncn2[C@H]1CC[C@H](CO)[C@@H](CO)C1` [Example 16, 9-[(1S,3S,4S)-3,4-Bis(hydroxymethyl)-cyclohexyl]-adenine] reads 4.5 µg/mL (≈ 16.2 µM).
